Data: ChEMBL document CHEMBL3611985, “Synthesis and structure-activity relationships of novel 9-oxime acylides with improved bactericidal activity” (2015)
≈ marks a conversion by molar mass, not a printed value.

Assays:
Type in all cases: functional
Streptococcus pneumoniae [1] = assay: Antimicrobial activity against erythromycin-susceptible Streptococcus pneumoniae ATCC 49619 incubated for 20 to 24 hrs by two-fold microbroth dilution method
Streptococcus pneumoniae [2] = assay: Antimicrobial activity against Streptococcus pneumoniae 07P390 expressing constitutive ermB incubated for 20 to 24 hrs by two-fold microbroth dilution method
Streptococcus pneumoniae [3] = assay: Antimicrobial activity against penicillin-susceptible Streptococcus pneumoniae PU09 incubated for 20 to 24 hrs by two-fold microbroth dilution method
Streptococcus pyogenes [4] = assay: Antimicrobial activity against Streptococcus pyogenes 01-968 expressing inducible ermA incubated for 20 to 24 hrs by two-fold microbroth dilution method
Staphylococcus aureus [5] = assay: Antimicrobial activity against methicillin-resistant Staphylococcus aureus PU32 expressing inducible ermA incubated for 20 hrs by two-fold microbroth dilution method; conditions: PU32, 20 h
Staphylococcus aureus [6] = assay: Antimicrobial activity against methicillin-resistant Staphylococcus aureus PU20 expressing constitutive ermC incubated for 20 hrs by two-fold microbroth dilution method; conditions: PU20, 20 h
Haemophilus influenzae = assay: Antimicrobial activity against azithromycin-susceptible and ampicillin-resistant Haemophilus influenzae 11P037 incubated for 20 to 24 hrs by two-fold microbroth dilution method
Streptococcus pyogenes [7] = assay: Antimicrobial activity against Streptococcus pyogenes 12-207 expressing mef incubated for 20 to 24 hrs by two-fold microbroth dilution method
Moraxella catarrhalis [8] = assay: Antimicrobial activity against erythromycin-susceptible Moraxella catarrhalis 11B366 incubated for 20 hrs by two-fold microbroth dilution method; conditions: 11B366, 20 h
Streptococcus pneumoniae [9] = assay: Bactericidal activity against erythromycin-susceptible Streptococcus pneumoniae ATCC 49619 incubated for 20 to 24 hrs followed by sub-culturing for 24 hrs in absence of compound
Streptococcus pneumoniae [10] = assay: Bactericidal activity against penicillin-susceptible Streptococcus pneumoniae PU09 incubated for 20 to 24 hrs followed by sub-culturing for 24 hrs in absence of compound
Streptococcus pyogenes [11] = assay: Bactericidal activity against Streptococcus pyogenes 01-968 expressing inducible ermA incubated for 20 to 24 hrs followed by sub-culturing for 24 hrs in absence of compound
Streptococcus pyogenes [12] = assay: Bactericidal activity against Streptococcus pyogenes 12-207 expressing mef incubated for 20 to 24 hrs followed by sub-culturing for 24 hrs in absence of compound
Staphylococcus aureus [13] = assay: Bactericidal activity against methicillin-resistant Staphylococcus aureus PU32 expressing inducible ermA incubated for 20 hrs followed by sub-culturing for 24 hrs in absence of compound
Staphylococcus aureus [14] = assay: Bactericidal activity against methicillin-resistant Staphylococcus aureus PU20 expressing constitutive ermC incubated for 20 hrs followed by sub-culturing for 24 hrs in absence of compound
Moraxella catarrhalis [15] = assay: Bactericidal activity against erythromycin-susceptible Moraxella catarrhalis 11B366 incubated for 20 hrs followed by sub-culturing for 24 hrs in absence of compound
Streptococcus pneumoniae [16] = assay: Ratio of MBC to MIC against erythromycin-susceptible Streptococcus pneumoniae ATCC 49619
Streptococcus pneumoniae [17] = assay: Ratio of MBC to MIC against penicillin-susceptible Streptococcus pneumoniae PU09
Streptococcus pyogenes [18] = assay: Ratio of MBC to MIC against Streptococcus pyogenes 01-968 expressing inducible ermA
Streptococcus pyogenes [19] = assay: Ratio of MBC to MIC against Streptococcus pyogenes 12-207 expressing mef
Staphylococcus aureus [20] = assay: Ratio of MBC to MIC against methicillin-resistant Staphylococcus aureus PU32 expressing inducible ermA
Staphylococcus aureus [21] = assay: Ratio of MBC to MIC against methicillin-resistant Staphylococcus aureus PU20 expressing constitutive ermC
Moraxella catarrhalis [22] = assay: Ratio of MBC to MIC against erythromycin-susceptible Moraxella catarrhalis 11B366

CC[C@H]1OC(=O)[C@H](C)[C@@H](OC(=O)Cc2ccccn2)[C@H](C)[C@@H](O[C@@H]2O[C@H](C)C[C@H](N(C)C)[C@H]2O)[C@](C)(OC)C[C@@H](C)/C(=N\OC/C=C/c2cncc(NC(=O)Cc3ccccn3)c2)[C@H](C)[C@H]2OC(=O)O[C@@]21C
MIC (Streptococcus pneumoniae [1]): 0.062 µg/mL (≈ 0.0619 µM) | MIC (Streptococcus pneumoniae [2]): 2 µg/mL (≈ 2 µM) | MIC (Streptococcus pneumoniae [3]): 2 µg/mL (≈ 2 µM) | MIC (Streptococcus pyogenes [4]): 4 µg/mL (≈ 4 µM) | MIC (Staphylococcus aureus [5]): 2 µg/mL (≈ 2 µM) | MIC (Staphylococcus aureus [6]): > 64 µg/mL | MIC (Haemophilus influenzae): > 64 µg/mL

CC[C@H]1OC(=O)[C@H](C)[C@@H](OC(=O)Cc2ccccn2)[C@H](C)[C@@H](O[C@@H]2O[C@H](C)C[C@H](N(C)C)[C@H]2O)[C@](C)(OC)C[C@@H](C)/C(=N\OC/C=C/c2ccnc(NC(=O)Cc3ccccn3)c2)[C@H](C)[C@H]2OC(=O)O[C@@]21C
MIC (Streptococcus pneumoniae [1]): 0.125 µg/mL (≈ 0.125 µM) | MIC (Streptococcus pneumoniae [2]): 4 µg/mL (≈ 4 µM) | MIC (Streptococcus pneumoniae [3]): 4 µg/mL (≈ 4 µM) | MIC (Streptococcus pyogenes [4]): 4 µg/mL (≈ 4 µM) | MIC (Staphylococcus aureus [5]): 4 µg/mL (≈ 4 µM) | MIC (Staphylococcus aureus [6]): > 64 µg/mL | MIC (Haemophilus influenzae): > 64 µg/mL

CC[C@H]1OC(=O)[C@H](C)[C@@H](OC(=O)Cc2ccccn2)[C@H](C)[C@@H](O[C@@H]2O[C@H](C)C[C@H](N(C)C)[C@H]2O)[C@](C)(OC)C[C@@H](C)/C(=N\OCC#Cc2ccc([N+](=O)[O-])nc2)[C@H](C)[C@H]2OC(=O)O[C@@]21C
MIC (Streptococcus pneumoniae [1]): 0.031 µg/mL (≈ 0.0341 µM) | MIC (Streptococcus pneumoniae [2]): 1 µg/mL (≈ 1.1 µM) | MIC (Streptococcus pneumoniae [3]): 0.5 µg/mL (≈ 0.549 µM) | MIC (Streptococcus pyogenes [4]): 0.5 µg/mL (≈ 0.549 µM) | MIC (Staphylococcus aureus [5]): 0.25 µg/mL (≈ 0.275 µM) | MIC (Staphylococcus aureus [6]): > 64 µg/mL | MIC (Haemophilus influenzae): > 64 µg/mL

CC[C@H]1OC(=O)[C@H](C)[C@@H](OC(=O)Cc2ccccn2)[C@H](C)[C@@H](O[C@@H]2O[C@H](C)C[C@H](N(C)C)[C@H]2O)[C@](C)(OC)C[C@@H](C)/C(=N\OCCCc2cncc(NC(=O)Cc3ccccn3)c2)[C@H](C)[C@H]2OC(=O)O[C@@]21C
MIC (Streptococcus pneumoniae [1]): 0.125 µg/mL (≈ 0.125 µM) | MIC (Streptococcus pneumoniae [2]): 4 µg/mL (≈ 3.99 µM) | MIC (Streptococcus pneumoniae [3]): 4 µg/mL (≈ 3.99 µM) | MIC (Streptococcus pyogenes [4]): 8 µg/mL (≈ 7.97 µM) | MIC (Staphylococcus aureus [5]): 4 µg/mL (≈ 3.99 µM) | MIC (Staphylococcus aureus [6]): > 64 µg/mL | MIC (Haemophilus influenzae): > 64 µg/mL

CC[C@H]1OC(=O)[C@H](C)[C@@H](OC(=O)Cc2ccccn2)[C@H](C)[C@@H](O[C@@H]2O[C@H](C)C[C@H](N(C)C)[C@H]2O)[C@](C)(OC)C[C@@H](C)/C(=N\OCC#Cc2ccc(-n3ccnc3)cc2)[C@H](C)[C@H]2OC(=O)O[C@@]21C
MIC (Streptococcus pneumoniae [1]): 0.125 µg/mL (≈ 0.134 µM) | MIC (Streptococcus pneumoniae [3]): 2 µg/mL (≈ 2.15 µM) | MIC (Streptococcus pyogenes [4]): 0.062 µg/mL (≈ 0.0667 µM) | MIC (Staphylococcus aureus [5]): 2 µg/mL (≈ 2.15 µM) | MIC (Staphylococcus aureus [6]): 32 µg/mL (≈ 34.4 µM) | MIC (Haemophilus influenzae): > 256 µg/mL | MIC (Streptococcus pyogenes [7]): 1 µg/mL (≈ 1.08 µM) | MIC (Moraxella catarrhalis [8]): 4 µg/mL (≈ 4.3 µM) | MBC (Streptococcus pneumoniae [9]): 0.25 µg/mL (≈ 0.269 µM) | MBC (Streptococcus pneumoniae [10]): 4 µg/mL (≈ 4.3 µM) | MBC (Streptococcus pyogenes [11]): > 0.5 µg/mL | MBC (Streptococcus pyogenes [12]): 8 µg/mL (≈ 8.6 µM) | MBC (Staphylococcus aureus [13]): > 16 µg/mL | MBC (Staphylococcus aureus [14]): 64 µg/mL (≈ 68.8 µM) | MBC (Moraxella catarrhalis [15]): 8 µg/mL (≈ 8.6 µM) | Ratio (Streptococcus pneumoniae [16]): 2 | Ratio (Streptococcus pneumoniae [17]): 2 | Ratio (Streptococcus pyogenes [18]): >8 | Ratio (Streptococcus pyogenes [19]): 8 | Ratio (Staphylococcus aureus [20]): >8 | Ratio (Staphylococcus aureus [21]): 2 | Ratio (Moraxella catarrhalis [22]): 2

CC[C@H]1OC(=O)[C@H](C)[C@@H](OC(=O)Cc2ccccn2)[C@H](C)[C@@H](O[C@@H]2O[C@H](C)C[C@H](N(C)C)[C@H]2O)[C@](C)(OC)C[C@@H](C)/C(=N\OCC#Cc2ccc(NC(=O)Cc3ccccn3)nc2)[C@H](C)[C@H]2OC(=O)O[C@@]21C
MIC (Streptococcus pneumoniae [1]): 0.062 µg/mL (≈ 0.0621 µM) | MIC (Streptococcus pneumoniae [2]): 1 µg/mL (≈ 1 µM) | MIC (Streptococcus pneumoniae [3]): 1 µg/mL (≈ 1 µM) | MIC (Streptococcus pyogenes [4]): 4 µg/mL (≈ 4 µM) | MIC (Staphylococcus aureus [5]): 4 µg/mL (≈ 4 µM) | MIC (Staphylococcus aureus [6]): > 64 µg/mL | MIC (Haemophilus influenzae): > 64 µg/mL

CC[C@H]1OC(=O)[C@H](C)[C@@H](OC(=O)Cc2ccccn2)[C@H](C)[C@@H](O[C@@H]2O[C@H](C)C[C@H](N(C)C)[C@H]2O)[C@](C)(OC)C[C@@H](C)/C(=N\OCCCc2ccc(NC(=O)Cc3ccccn3)nc2)[C@H](C)[C@H]2OC(=O)O[C@@]21C
MIC (Streptococcus pneumoniae [1]): 0.125 µg/mL (≈ 0.125 µM) | MIC (Streptococcus pneumoniae [2]): 2 µg/mL (≈ 1.99 µM) | MIC (Streptococcus pneumoniae [3]): 2 µg/mL (≈ 1.99 µM) | MIC (Streptococcus pyogenes [4]): 8 µg/mL (≈ 7.97 µM) | MIC (Staphylococcus aureus [5]): 2 µg/mL (≈ 1.99 µM) | MIC (Staphylococcus aureus [6]): > 64 µg/mL | MIC (Haemophilus influenzae): > 64 µg/mL

CC[C@H]1OC(=O)[C@H](C)[C@@H](OC(=O)Cc2ccccn2)[C@H](C)[C@@H](O[C@@H]2O[C@H](C)C[C@H](N(C)C)[C@H]2O)[C@](C)(OC)C[C@@H](C)/C(=N\OCC#Cc2ccc(N)nc2)[C@H](C)[C@H]2OC(=O)O[C@@]21C
MIC (Streptococcus pneumoniae [1]): 0.008 µg/mL (≈ 0.00909 µM) | MIC (Streptococcus pneumoniae [2]): 2 µg/mL (≈ 2.27 µM) | MIC (Streptococcus pneumoniae [3]): 0.5 µg/mL (≈ 0.568 µM) | MIC (Streptococcus pyogenes [4]): 1 µg/mL (≈ 1.14 µM) | MIC (Staphylococcus aureus [5]): 0.5 µg/mL (≈ 0.568 µM) | MIC (Staphylococcus aureus [6]): > 64 µg/mL | MIC (Haemophilus influenzae): 32 µg/mL (≈ 36.4 µM)
